Experimental data: patent publication US20230026232A1, “AHR INHIBITORS AND USES THEREOF” (Ikena Oncology, Inc., priority 2019, published 2023)

Test: Glass transition temperature (Tg) by MDSC
Format: physicochemical
Conditions: for Tg: bulk API, melt-quench amorphous, MDSC
Description: DSC was performed using a TA Instruments Discovery DSC2500 differential scanning calorimeter equipped with a TA instruments Refrigerated Cooling System 90 operating in either modulated or ramp mode. DSC was used to measure thermodynamic events and characteristics of Compound A free base and hemi-maleate salt, and subsequent SDIs. Events observed include the glass transition temperature (Tg), cold crystallization (Tc), defined as a crystallization event at a temperature lower than the melt temperature, and melting temperature (Tm). SDI samples were placed in non-hermetic aluminum pans and heated at a constant rate of 2.0° C./min over a 5-200° C. temperature range. The system was purged by nitrogen flow at 50 mL/min to ensure inert atmosphere through the course of measurement. […] Amorphous API was successfully created by rapidly quenching liquefied Compound A using Refrigerated Cooling System 90. The resulting amorphous API was analyzed by modulated DSC. A summary of DSC analysis parameters can be found in Tables 2 and 3.
Thermal properties of both Compound A forms were measured by both DSC and MDSC. […] The Tg of each was measured via a melt-quench technique, heating past its melting temperature and rapidly cooling to trap the molten material in an amorphous state. […] (FIG. 2/Table 11).
Samples were stored at the elevated humidity conditions for 18 hours at ambient temperature before sealing in hermetic pans and analysis by MDSC. Results are reported as a function of relative humidity (RH) in FIG. 13 and Table 20. All lead SDI formulations (HPMCAS-H and PVP VA64 dispersions) have a Tg that is low at elevated humidity conditions and is predicted to require conservative packaging (i.e., desiccant, foil-foil seal, or etc.) to obtain sufficient long-term physical stability of the SDI. To ensure long-term physical stability in open packaging at all ICH conditions, it is desirable that the SDI have a Tg higher than 50° C. at 75% RH, and ideally higher than 60° C. at 75% RH.

Work on `CC(C)c1cnn2c(N[C@@H]3CCc4[nH]c5ccccc5c4C3)nc(-c3cncc(F)c3)nc12` [Compound A, (R)—N-(2-(5-fluoropyridin-3-yl)-8-isopropylpyrazolo[1,5-a][1,3,5]triazin-4-yl)-2,3,4,9-tetrahydro-1H-carbazol-3-amine] yielded a Tm/Tg ratio (K/K, indicator of physical stability) of 1.30, a Tg (listed as Compound A Free Base) of 95 °C and a Tg (listed as free base) of 95 °C.
